Measurements as given in patent US5869514A, “Terpenoidic derivatives useful as antitumor agents” (Pharmacia & Upjohn S.p.A., priority 1995, dated 1999).

Columns and labels:
[1] = test system: L1210/DX (Doxorubicin resistant) murine leukemia cell line; test: Cell cultures and drug sensitivity assay (inhibition of cell growth, cell counting), Doxorubicin resistant cells; type: cell-based; details: for R.I: L1210/DX versus L1210, 48 h treatment; for IC50: Mus musculus, L1210/DX cells (Doxorubicin resistant), 48 h treatment, read-out: ID50 (nM) L1210/DX
Protocol: (§1) (b) Cell Cultures and Drug Sensitivity Assay
(§2) L1210 and L1210/DX (Doxorubicin resistant) murine leukemia cell lines were grown in vitro as a stationary suspension culture in RPMI 1640 medium (GIBCO, Grand island, N.Y.) supplemented with 10% fetal calf serum (Flow, Irwine, UK), 2 mM L-glutamine (Gibco Europe, Glasgow, UK), 10 μM β-mercaptoethanol, 100 Units/ml penicillin and 100 μg/ml streptomycin.
(§3) Exponentially growing cells were seeded (1×10^5 cell/ml) in 12-well/plates (Costar, Cambridge, Mass.) and various concentrations of tested compounds were added immediately after seeding.
(§4) The plates were incubated at 37° C. in a humidified, 5% CO2 atmosphere for 48 hr.
(§5) Inhibition of cell growth was evaluated by counting surviving cells in a ZBI Coulter Counter (Hialeah, Fla.). The 50% inhibitory concentration (IC50) was calculated on the derived concentration-response curve. For each tested compound concentration, duplicate cultures were used.

Calf brain tubulin = test: Tubulin assembly test (repolymerization in presence of CaCl2, turbidity at 340 nm); type: biochemical; details: tubulin 1 mg/ml, 1 mM GTP, after 4 mM CaCl2
Protocol: (a) Tubulin Assembly Test
Calf brain tubulin was prepared by two cycles of assembly-disassembly (Shelanski M. L., Gaskin F. and Cantor C. R., Proc. Natl.Acad.Sci. U.S.A. 70, 765-768, 1973; and stored in liquid nitrogen in MAB (0.1M MES, 2.5 mM EGTA, 0.5 mM MgSO4, 0.1 mM EDTA, 0.1 mM DTT, pH 6.4).
All the experiments were carried out on protein stored for less than 4 weeks.
Before each experiment, tubulin was kept 30 min at 4° C. Assembly was monitored by the method of Gaskin et al. (Gaskin F., Cantor C. R. and Shelanski M. L., J.Molec.Biol. 89, 737-758, 1974).
The cuvette (1 cm path) containing tubulin (1 mg/ml) and 1 mM GTP was shifted to 37° C. and continuous turbidity measurements were made at 340 nm on a Perkin-Elmer 557 double wavelength, double beam spectrophotometer equipped with an automatic recorder and a thermostatically regulated sample chamber.
After 30 minutes, 4 mM CaCl2 was added and depolymerisation was measured for 10 minutes as decreased turbidity.
At regular intervals of 15 minutes scaled doses of the tested compounds were added and variations in the turbidity were monitored.
Data are expressed as percentage of repolymerization induced by the tested compounds.

[2] = test system: L1210 murine leukemia cell line; test: Cell cultures and drug sensitivity assay (inhibition of cell growth, cell counting); type: cell-based; details: Mus musculus; L1210 cells, 48 h treatment; read-out: ID50 (nM) L1210
Protocol: as §1, §2, §3, §4, §5

Row | SMILES | R.I [1] | IC50 [1] [nM] | tubulin assembly (%) (percentage of repolymerization induced by the tested compound) (Calf brain tubulin; dosage 4 μM) | tubulin assembly (%) (percentage of repolymerization induced by the tested compound) (Calf brain tubulin; dosage 40 μM) | IC50 [2] [nM] | tubulin assembly (%) (percentage of repolymerization induced by the tested compound) (Calf brain tubulin; dosage 3.9 μM) | tubulin assembly (%) (percentage of repolymerization induced by the tested compound) (Calf brain tubulin; dosage 39 μM)
1 | COC(=O)C1=CC2C(CC(OC(=O)C=Cc3cn(C)cn3)C3(C)C=CC1(O)O3)C(C)=CCC2C(C)C (single isomer, unassigned; (-)) [Sarcodictyin A] | 1.4 | 754 ± 80.3 | 70 | 162 | 539 ± 97.7 |  | 
2 | COC(=O)C1=CC2C(CC(OC(=O)C=Cc3cn(C)cn3)C3(C)C=CC1(O)O3)C(C)=CC(O)C2C(C)C (single isomer, unassigned; (-)) [Sarcodictyin C] | 14.2 | 5790 ± 183 |  |  | 408 ± 21.3 | 112 | 173
